Where two headings read alike, the source gives them in different places. Each block holds one compound with its values, some of them ahead of it. Residues, ends and D or L forms follow the SMILES beside them. No end group written: not given here. *: point of attachment. Cbz = O=C(OCc1ccccc1)*
Legend:
prolylendopeptidase = target: T1, prolylendopeptidase (Canis lupus familiaris, UniProt A0A8I3N6C8); test: 125I-Ang-(1-7) production from 125I-Ang I in dog hypothalamus homogenates (HPLC); format: biochemical; details: DTT 1 mM
T1 construct: from tissue; host or cells: dog hypothalamus homogenate, 10,000 g supernatant
T1 sequence (A0A8I3N6C8 1-710): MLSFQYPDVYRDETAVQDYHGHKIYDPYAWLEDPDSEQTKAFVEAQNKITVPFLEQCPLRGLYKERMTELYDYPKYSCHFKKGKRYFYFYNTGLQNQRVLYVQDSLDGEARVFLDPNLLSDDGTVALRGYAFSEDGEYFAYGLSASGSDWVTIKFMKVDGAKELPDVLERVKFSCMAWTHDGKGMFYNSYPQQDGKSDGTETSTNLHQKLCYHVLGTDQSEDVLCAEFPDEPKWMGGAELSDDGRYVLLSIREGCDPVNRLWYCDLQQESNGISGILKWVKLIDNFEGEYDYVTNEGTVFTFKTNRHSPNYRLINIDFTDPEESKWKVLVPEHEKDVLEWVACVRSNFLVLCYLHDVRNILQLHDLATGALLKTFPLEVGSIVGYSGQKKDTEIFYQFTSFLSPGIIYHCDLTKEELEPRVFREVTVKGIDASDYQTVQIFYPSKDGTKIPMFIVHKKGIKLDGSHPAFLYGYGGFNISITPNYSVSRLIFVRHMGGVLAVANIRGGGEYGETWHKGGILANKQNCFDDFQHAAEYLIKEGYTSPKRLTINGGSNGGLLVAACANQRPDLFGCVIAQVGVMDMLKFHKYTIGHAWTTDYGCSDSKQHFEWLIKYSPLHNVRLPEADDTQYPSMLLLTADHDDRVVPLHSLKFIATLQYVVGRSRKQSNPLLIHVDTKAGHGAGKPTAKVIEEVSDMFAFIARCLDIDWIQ
Procedure: As a result of these discoveries, the enzyme(s) involved in the production of Ang-(1-7) in homogenates (20 mM TRIS HCl buffer, pH 7.5) of dog hypothalamus were evaluated.

[1] = system: vascular smooth muscle cultures (VSMC) from spontaneously hypertensive rats; details: for effect on the levels of 125I-Ang-(1-7) / inhibition of the formation of 125I-Ang-(1-7) from 125I-Ang I: 10 μM
Procedure: (§2) Aortic smooth muscle cells were isolated according to the following general process. The adventia and outer third medial layer were removed from segments (2 cm^2) of the thoracic aorta from SHR or WYK rats, minced into 1 cm^2 pieces and allowed to adhere on plastic for 15 minutes. The explants were incubated with Dulbecco's modified Eagles' medium (DMEM, Irvine Scientific CO., Irvine, Calif.) diluted 1:1 with F12 (Irvine Scientific) and supplemented with 10% fetal calf serum and 1% penicillin/streptomyocin in a humid atmosphere of 95% air, 5% CO2 at 37° five days and the tissues were removed after a halo of cells appeared around the explant. […] The culture medium was changed daily for the three days and thereafter, every third day. The smooth muscle cells were evaluated both for their morphological appearance and their recognition of a monoclonal antibody to smooth muscle-type alpha actin (A 2547, Sigma Chemical, St. Louis, MO).
(§3) For metabolism studies, cell monolayers (passage 4 to 6) in 24 well plates were washed twice with 1.0 ml of Krebs-Ringer solution (125 mM NaCl, 5 mM KCl, 1.0 mM CaCl2, 1.2 mMMgSO4, 25 mM HEPES, pH 7.4 and 6 mM glucose). Intact cells were incubated with ^125 I-Ang I (0.2-0.4 nM, final concentration) both in the presence and absence of enzyme inhibitors in 0.25 ml of Krebs buffer at 37° C. At selected time points, aliquots (0.05 ml) were withdrawn from the well, diluted in 0.15 ml 80% acetonitrile (ACN)/0.2% heptafluorobutyric acid (HFBA) stored at -80° C. prior to analysis by high performance liquid chromatography (HPLC). In addition, 0.20 ml of the medium, exposed to the cells for 60 minutes were incubated with ^125 I-Ang I for 60-120 minutes at 37° C. and analyzed by HPLC.
(§4) ^125 I-products were characterized by HPLC using a heptafluorobutyric acid (HFBA) solvent system. This system consisted of 0.13% HFBA (mobile phase A) and 80% ACN/0.13% HFBA (mobile phase B) and the analysis was performed on a Kratos 400 HPLC equipped with a Waters Nova-Pak C18 column (Waters, MA, 2.1×15 mm) and an Aquapore column (Waters, MA, 2.1×15 mm) and an Aquapore C8 guard column (Applied Biosystems, 3.2×1.5 mm). The gradient conditions consisted of 20-50% B Linear (30 min) and 50% B isocratic (10 min) at a flow rate of 0.3 ml/min at room temperature. HPLC fractions were collected every 0.5 min and counted in a gamma counter. Products were identified by comparison of their retention times to those of standard ^125 I-angiotensin peptides. To further assess the identity of each radioactive peak, either the incubation samples or ^125 I-products were rechromatographed using a trifluoracetic acid (TFA) solvent. This system consisted of 0.1% TFA, pH 4.5 (mobile phase A) and 60% ACN/0.1% TFA pH 4.5 (mobile phase B). A linear gradient of 15-45% B (30 min) and 45% B isocratic (10 min) at 0.3 ml/min at room temperature was performed on the HPLC system described above.
(§5) Statistics: Differences in the generation of ^125 I-peptides under various conditions were assessed by analyses of variance followed by Newman Keuls multiple comparison test. The criterion for statistical significance was set at p<0.05.

[2] = system: vascular smooth muscle cultures (VSMC) from normotensive (WKY) rats; test: 125I-Ang I metabolism by intact vascular smooth muscle cultures of WKY (HPLC); format: cell-based, rat; details: for effect on the levels of 125I-Ang-(1-7) / inhibition of the formation of 125I-Ang-(1-7) from 125I-Ang I: 10 μM
Procedure: as §2, §3, §4, §5

[3] = system: normotensive Wistar-Kyoto control rats (WKY); test: Third ventricle push-pull perfusion in WKY, MAP and HR; format: in vivo, rat
Procedure: (§1) In order to assess the effectiveness of Z-Proprolinal, the specific inhibitor of prolyl endopeptidase, in controlling blood pressure the following study was conducted. […] Similar studies were performed in age-matched normotensive Wistar-Kyoto control rats (WKY) (obtained from Taconic Farms, New York).

[4] = mammals; cited from earlier work
[5] = system: spontaneously hypertensive rats (SHR); test: Third ventricle push-pull perfusion in SHR, MAP and HR; format: in vivo, rat
Procedure: as §1

vascular smooth muscle = details: cited from earlier work
human urine = details: cited from earlier work
NEP 24.11 = details: human; cited from earlier work
swine urine = details: cited from earlier work
[6] = cultured mouse spinal cord cells; details: cited from earlier work
[7] = preparations of synaptic membranes from the rat brain; details: cited from earlier work
[8] = supernatants of dog brain tissue punch homogenates (ACE activity assay); details: mongrel dogs, 37° C., up to 15 minutes

increase in the rate of generation of Ang-(1-7) (prolylendopeptidase): about three fold
Compound: O[C@@H](CS)[C@@H](O)CS [DTT]

Compound: O=S(=O)(O)c1cc[c]([Hg][Cl])cc1 [PCMS, p-chloromercuriphenylsulfonate acid]
inhibition of 125I-Ang-(1-7) levels ([1]; SHR VSMC, 1 μM, data not shown): to a similar extent as that observed with cPF-AAF-pAB
inhibition of 125I-Ang-(1-7) levels ([2]; 1 μM, data not shown): to a similar extent as that observed with cPF-AAF-pAB

Compound: O=C[C@@H]1CCCN1C(=O)[C@@H]1CCCN1C(=O)OCc1ccccc1 [ZPP, N-benzyloxycarbonyl-prolylprolinal] (Cbz-Pro-Pro-aldehyde)
effect on either MAP or HR ([3]; WKY (n=13), ZPP 1 μM): no effect
MAP with ZPP perfusion ([3]; WKY, ZPP 1 μM, from 99±6): 100±7 mmHg
HR with ZPP perfusion ([3]; WKY, ZPP 1 μM, from 379±18): 368±27 beats/min
reduction in MAP by K+ in the presence of ZPP ([3]; WKY, K+ alone -16±3 mmHg): -6±4 mmHg
reduction in HR by K+ in the presence of ZPP ([3]; WKY, K+ alone -37±7 beats/min): -13±8 beats/min
blood-brain barrier (BBB) passage [4]: readily traverses the blood-brain barrier
effect on the levels of 125I-Ang-(1-7) ([1]; SHR VSMC): no effect
fall in MAP in response to depolarizing K+ after ZPP pretreatment ([5]; K+ alone -19±4 mmHg): did not change the magnitude of the fall in MAP
HR response to depolarizing K+ after ZPP pretreatment ([5]; K+ alone -32±7 beats/min): attenuated
decrease in mean arterial pressure ([5]; ZPP 1 μM perfusion of third ventricle, n=13, basal MAP 156±5 mmHg): -37±4 mmHg
heart rate (HR) with ZPP perfusion ([5]; ZPP 1 μM, from 384±10): 376±19 beats/min
effect on the levels of 125I-Ang-(1-7) [2]: no effect

Compound: C[C@H](NC(=O)[C@H](C)NC(CCc1ccccc1)C(=O)O)C(=O)N[C@@H](Cc1ccccc1)C(=O)Nc1ccc(C(=O)O)cc1 (stereo partly drawn) [cFP-AAF-pAB, Carboxyphenylpropyl-alanyl-alanyl-phenylalanyl-para-aminiobenzoate]
inhibition of the formation of 125I-Ang-(1-7) from 125I-Ang I ([1]; SHR VSMC): 90%
inhibition of the formation of 125I-Ang-(1-7) from 125I-Ang I ([1]; SHR VSMC, listed as cPf-AAF-pAB, 10 µM): over 90%
inhibition of the formation of 125I-Ang-(1-7) from 125I-Ang I [2]: 90%
inhibition of the formation of 125I-Ang-(1-7) from 125I-Ang I ([2]; listed as cPf-AAF-pAB): over 90%

Compound: O=C(O)CNC(=O)C(CS)Cc1ccccc1 (stereo not drawn) [thiorphan]
effect on the levels of 125I-Ang-(1-7) ([1]; SHR VSMC): no effect
effect on the levels of 125I-Ang-(1-7) [2]: no effect

Compound: Asp-Arg-Val-Tyr-Ile-His-Pro-Phe
fragment found (vascular smooth muscle): Angiotensin-(1-7)
fragment found (human urine): Angiotensin-(1-7)
cleaved bond (NEP 24.11): Tyr4-Ile5
fragment found (swine urine): Angiotensin-(1-7)
fragment found [6]: Angiotensin-(1-7)
fragment found [7]: Angiotensin-(1-7)

Compound: His-Leu
not cleaved [8]: hydrolysis of the product His-Leu was less than 6%

Compound: ^125 I-Ang I: 125I-labelled Ang I used as substrate (DRVYIHPFHL; also: 125I label; UniProt P01019 25-34, looked up)
125I-Ang-(1-7) generation as share of the total 125I-Ang I metabolism [1]: 65-80%
main peptide product in the medium [1]: ^125 I-Ang-(1-7)

From US5451571A (The Cleveland Clinic Foundation, priority 1994, dated 1995)
